Results from patent US20090298875A1, “A Combination of Compounds, Which Can be Used in the Treatment of Respiratory Diseases, Especially Chronic Obstructive Pulmonary Disease (COPD) and Asthma” (ASTRAZENECA AB, priority 2005, published 2009).

Test: Estimated solubility of the salt in organic solvents
Type: physicochemical
Description: (b) The Form B salt described in (a) above was also prepared by dissolving, in a vial, 20% w of a sample of the benzoate salt prepared by the method of Example 1(b) (Form A) in a solvent such as methanol (>20 mg/ml), ethanol (>20 mg/ml), n-propanol (>20 mg/ml), isopropanol (8.5 mg/ml) or acetone (9.6 mg/ml). The figures in brackets indicate the estimated solubility of the salt in these solvents. The vial was then sealed and the suspension was homogenised at ambient temperature (20° C.) using a magnet. Stirring and temperature were maintained for a period of at least 7 days after which time a sample of the material obtained was dried and tested by XRPD. XRPD confirmed that there had been complete transformation of Form A to Form B.
(a) Form B was prepared by dissolving, in a vial, 20% w of a sample of the furoate salt prepared by the method of Example 1(b) (Form A) in a solvent such as ethanol (16 mg/ml) or 2-butanol (8 mg/ml). The figures in brackets indicate the estimated solubility of the salt in these solvents. The vial was then sealed and the suspension was homogenised at ambient temperature (20° C.) using a magnet. Stirring and temperature were maintained for a period of at least 7 days after which time a sample of the material obtained was dried and tested by XRPD. XRPD confirmed that there had been complete transformation of Form A to Form B.

CC(=O)Nc1ccc(O)cc1OC[C@@](C)(O)CNC1CCN(Cc2ccc(Cl)cc2)CC1.O=C(O)c1ccco1 [1(c), N-{2-[((2S)-3-{[1-(4-chlorobenzyl)piperidin-4-yl]amino}-2-hydroxy-2-methylpropyl)oxy]-4-hydroxyphenyl}acetamide furoate (1:1 Salt), Form A]
estimated solubility of the salt (2-butanol): 8 mg/mL | estimated solubility of the salt (ethanol): 16 mg/mL

CC(=O)Nc1ccc(O)cc1OC[C@@](C)(O)CNC1CCN(Cc2ccc(Cl)cc2)CC1.O=C(O)c1ccccc1 [Example 1(b), N-{2-[((2S)-3-{[1-(4chlorobenzyl)piperidin-4-yl]amino}-2-hydroxy-2-methylpropyl)oxy]-4-hydroxyphenyl}acetamide benzoate (1:1 Salt), Form A]
estimated solubility of the salt (acetone): 9.6 mg/mL | estimated solubility of the salt (ethanol): > 20 mg/mL | estimated solubility of the salt (isopropanol): 8.5 mg/mL | estimated solubility of the salt (methanol): > 20 mg/mL | estimated solubility of the salt (n-propanol): > 20 mg/mL
